Here are results for 47 compounds from patent US11286268B1, “EIF4E-inhibiting compounds and methods” (EFFECTOR THERAPEUTICS, INC., priority 2019, dated 2022).

Where two headings read alike, the source gives them in different places.

This experiment has as its target recombinant eIF4E (Homo sapiens (Human), UniProt P06730). The experiment can be described thus: Fluorescence polarization competition assay for eIF4E binding potency. Summed up: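 Competitive displacement format: compounds compete with a fluorescent m7GDP tracer (20 nM) for 75 nM recombinant eIF4E. Incubation is 30 min at room temperature, protected from light, with 1% DMSO. Polarization read gives IC50 over eight 3-fold concentrations.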

Setting [1] is: fluorescence polarization competition, 75 nM recombinant eIF4E, 20 nM EDA-m7GDP-ATTO-550, IC50 class, read-out: elF4E FP.
Where [2] appears, read: inhibition of eIF4E/EDA-m7GDP-ATTO-550 binding by 50%, Table 4B calculated values, read-out: IC50.
The mark [3] stands for this setting: inhibition of eIF4E/EDA-m7GDP-ATTO-550 binding, calculated IC50 values, Table 4B, read-out: IC50.

Sequence of recombinant eIF4E (P06730 whole entry): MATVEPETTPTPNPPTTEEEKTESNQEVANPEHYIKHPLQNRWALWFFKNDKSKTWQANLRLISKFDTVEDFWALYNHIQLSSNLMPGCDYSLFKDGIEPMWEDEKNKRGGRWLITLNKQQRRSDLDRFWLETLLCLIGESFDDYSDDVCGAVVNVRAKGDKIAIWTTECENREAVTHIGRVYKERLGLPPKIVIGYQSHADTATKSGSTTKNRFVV

In the case of `N#Cc1cccc2nc(C(F)F)n(CCOc3ccc(Cl)cc3-c3nccc4c(C(=O)O)csc34)c(=O)c12` [compound 189], the IC50 runs as follows: under setting [1], over 1000 nM; under setting [2], 1570 nM. For `Cc1nc2cc(C(F)(F)F)c(N3CCN(C4CC(F)(F)C4)CC3)c(C#N)c2c(=O)n1CCOc1ccc(Cl)cc1-c1ccnc2c(C(=O)O)csc12` [compound 1292], the IC50 under setting [3] is 52.3 nM.

As for `Cc1nc2cnc(-c3ccncc3)c(C#N)c2c(=O)n1CC#Cc1ccc(Cl)cc1-c1ccnc2c(C(=O)O)csc12` [compound 770], the IC50 runs as follows: under setting [1], under 50 nM; under setting [2], 14 nM. The like results for `Cc1cc(-c2cc(Cl)ccc2OCCn2c(C)nc3cc(Cl)c(N4CC(S(C)(=O)=O)C4)c(C#N)c3c2=O)c2scc(C(=O)O)c2n1` [compound 702] were, in that order, under 50 nM and 12.7 nM. The like results for `Cc1cncc(-c2c(C(F)(F)F)cc3nc(C)n(CCOc4ccc(Cl)cc4-c4cc(C)nc5c(C(=O)O)csc45)c(=O)c3c2C#N)c1` [compound 775] were, in that order, under 50 nM and 48.3 nM. On to `COC(=O)c1csc2c(-c3cc(Cl)ccc3OCCn3c(C)nc4cc(C(F)(F)F)cc(C#N)c4c3=O)ccnc12` [compound 1900], for which the IC50 under setting [3] was 2700 nM.

`Cc1nc2cnc(N3CCC4(CC3)CCN4CC(F)F)c(C#N)c2c(=O)n1CC#Cc1ccc(Cl)cc1-c1ccnc2c(C(=O)O)csc12` [compound 1490]: the IC50 under setting [3] was 29.1 nM. For `Cc1cc2cc(C(F)(F)F)c(N3CCN(C)CC3)c(C#N)c2c(=O)n1CCOc1ccc(Cl)cc1-c1ccnc2c(C(=O)O)csc12` [compound 1240], the IC50 is under 50 nM under setting [1] and 15.5 nM under setting [3].

For `CNc1c(Cl)cc2nc(C)n(CCOc3ccc(Cl)cc3-c3cc(C)nc4c(C(=O)O)csc34)c(=O)c2c1C#N` [compound 694], the IC50 by setting is: under setting [1], under 50 nM; under setting [2], 19.1 nM.

`Cc1nc2ccc(S(C)(=O)=O)c(C#N)c2c(=O)n1CCOc1ccc(Cl)cc1-c1ccnc2c(C(=O)O)csc12` [compound 195]: the IC50 was under 50 nM under setting [1] and 27.4 nM under setting [2]. The like results for `Cc1nc2cc(C(F)(F)F)cc(C#N)c2c(=O)n1CCOc1ccc(Cl)cc1-c1nccc2c(C(=O)O)csc12` [compound 225] were, in that order, 50 to 1000 nM and 147 nM. `Cc1nc2cccc(C#N)c2c(=O)n1CCOc1ccc(Cl)cc1-c1ccnc2c(C(=O)O)csc12` [compound 254]: the IC50 was under 50 nM under setting [1] and 20.4 nM under setting [2]. Take `Cc1nc2cc(C(F)(F)F)cc(C#N)c2c(=O)n1CCOc1ncc(Cl)cc1-c1ccnc2c(C(=O)O)csc12` [compound 259]: the IC50 by setting is: under setting [1], 50 to 1000 nM; under setting [2], over 1000 nM. On to `Cc1nc2cc(C(F)(F)F)cc(C#N)c2c(=O)n1CCOc1ccc(Cl)cc1-c1csc2c(C(=O)O)cccc12` [compound 301], for which the IC50 is 50 to 1000 nM under setting [1] and 57.6 nM under setting [2]. Taken in the same sequence, the figures for `Cc1cc(-c2cc(Cl)ccc2OCCn2c(C)nc3c(C)nc(-c4ccc(C(F)(F)F)cc4)c(C#N)c3c2=O)c2scc(C(=O)O)c2n1` [compound 926] were under 50 nM and 18.3 nM. Consider `Cc1cc(-c2cc(Cl)ccc2OCCn2c(C)nc3c(C)nc(-c4c(F)cccc4F)c(C#N)c3c2=O)c2scc(C(=O)O)c2n1` [compound 1622], for which the IC50 under setting [3] is 17.3 nM. With `Cc1nc2cnc(N(C)C3CCN(CC(=O)C4CC4)CC3)c(C#N)c2c(=O)n1CCOc1ccc(Cl)cc1-c1ccnc2c(C(=O)O)csc12` [compound 1128], the IC50 by setting is: under setting [1], under 50 nM; under setting [2], 23.9 nM. `Cc1nc2cnc(N3CCN(C(C)C(F)(F)F)CC3)c(C#N)c2c(=O)n1CCOc1ccc(Cl)cc1-c1ccnc2c(C(=O)O)csc12` (centres unmarked) [compound 1315]: the IC50 under setting [3] was 13.1 nM.

With `Cc1nc2cnc(N(C)C3CCN(CC(F)F)CC3)c(C#N)c2c(=O)n1CC#Cc1ccc(Cl)cc1-c1ccnc2c(C(=O)NO)csc12` [compound 1560], the IC50 under setting [3] was 6.31 nM. On to `Cc1cc(-c2nc3c(=O)n(CCOc4ccc(Cl)cc4-c4ccc(C(N)=O)c5c(C(=O)O)csc45)c(C)nc3cc2C(F)(F)F)ccn1` [788Fb], for which the IC50 reads like this: under setting [1], under 50 nM; under setting [2], 4.35 nM. As to `Cc1sc2c(-c3cc(Cl)ccc3OCCn3c(C)nc4cnc(N5CCN(C)CC5)c(C#N)c4c3=O)ccnc2c1C(=O)O` [compound 1282], the IC50 under setting [3] was 38.2 nM. With `Cc1cnc(-c2nc3c(=O)n(CCOc4ccc(Cl)cc4-c4cc(C)nc5c(C(=O)O)csc45)c(C)nc3cc2C(F)(F)F)cn1` [compound 1018], the IC50 was under 50 nM under setting [1] and 6.71 nM under setting [2]. The like results for `Cc1cc(-c2cc(Cl)ccc2OCCn2c(C)nc3cnc(C4CCC(F)(F)C4)c(C#N)c3c2=O)c2scc(C(=O)O)c2n1` (centres unmarked) [compound 930] were, in that order, under 50 nM and 6.88 nM.

On to `Cc1ccc(C)c(-c2c(C(F)(F)F)cc3nc(C)n(CCOc4ccc(Cl)cc4-c4cc(C)nc5c(C(=O)O)csc45)c(=O)c3c2C#N)n1` [compound 906], for which the IC50 is under 50 nM under setting [1] and 17.6 nM under setting [2]. The like results for `N#Cc1c(F)cc(CCOc2ccc(Cl)cc2-c2cccc(C(=O)O)c2)c2c(=O)[nH]c(Nc3ccccc3)nc12` [compound 174] were, in that order, 50 to 1000 nM and 52.1 nM. As to `Cc1cc(-c2cc(Cl)ccc2OCCn2c(C)nc3c(C)nc(-c4ccccc4C)c(C#N)c3c2=O)c2scc(C(=O)O)c2n1` [compound 479], the IC50 under setting [1] was under 50 nM. As for `CCN(c1ncc2nc(C)n(CC#Cc3ccc(Cl)cc3-c3ccnc4c(C(=O)O)csc34)c(=O)c2c1C#N)C1CCN(C2CC2)CC1` [compound 1600], under setting [3], the IC50 is 20.3 nM. Take `Cc1cc(-c2cc(Cl)ccc2OCCn2c(C)nc3cc(C(F)(F)F)c(Cl)c(C#N)c3c2=O)c2scc(C(=O)O)c2n1` [compound 558]: the IC50 was under 50 nM under setting [1] and 27.2 nM under setting [2]. In the case of `Cc1nc2cnc(N(C)C3CCN(CC(C)(F)F)CC3)c(C#N)c2c(=O)n1CC#Cc1ccc(Cl)cc1-c1ccnc2c(C(=O)NS(=O)(=O)c3ccc(C(F)(F)F)cn3)csc12` [compound 1679], under setting [3], the IC50 was 29.3 nM. With `C#Cc1c(-c2cc(Cl)ccc2OCCn2c(C(F)F)nc3cccc(C#N)c3c2=O)ccnc1C(=O)O` [compound 163], the IC50 is 50 to 1000 nM under setting [1] and 95.5 nM under setting [2]. The like results for `Cc1sc2c(-c3cc(Cl)ccc3OCCn3c(C)nc4cc(C(F)(F)F)c(C5CCNCC5)c(C#N)c4c3=O)ccnc2c1C(=O)O` [compound 887] were, in that order, under 50 nM and 20.1 nM. The like results for `Cc1nc2cnc(N3CC4(CC(N(C)C5CC5)C4)C3)c(C#N)c2c(=O)n1CC#Cc1ccc(Cl)cc1-c1ccnc2c(C(=O)O)csc12` [compound 830] were, in that order, under 50 nM and 12.8 nM.

Take `Cc1nc2cnc(N(C)C3CCN(CC4(F)CCC4)CC3)c(C#N)c2c(=O)n1CC#Cc1ccc(Cl)cc1-c1ccnc2c(C(=O)O)csc12` [compound 1174]: the IC50 reads like this: under setting [1], under 50 nM; under setting [2], 9.32 nM. The like results for `CCN(Cc1ccccc1)S(=O)(=O)c1ccc2nc(C)n(CCOc3ccc(Cl)cc3-c3ccnc4c(C(=O)O)csc34)c(=O)c2c1C#N` [compound 253] were, in that order, under 50 nM and 46 nM.

As to `CCC(F)(F)CN1CCC(N(C)c2ncc3nc(C)n(CC#Cc4ccc(Cl)cc4-c4ccnc5c(C(=O)O)csc45)c(=O)c3c2C#N)CC1` [compound 1502], the IC50 under setting [3] was 26.2 nM. On the same count and under the same terms, with `Cc1cc(-c2cc(Cl)ccc2OCCn2c(C)nc3cc(S(C)(=O)=O)c(N4CCN(C)CC4)c(C#N)c3c2=O)c2scc(C(=O)O)c2n1` [compound 1295] the figure was 13.4 nM. As for `O=C(O)c1cccc(-c2cc(Cl)ccc2OCCn2cnc3ccncc3c2=O)c1` [compound 12], the IC50 reads like this: under setting [1], over 1000 nM; under setting [2], 2390 nM. Regarding `O=C(O)c1cccc(-c2cc(Cl)ccc2OCCn2c(Nc3ccccc3)nc3c(Cl)nccc3c2=O)c1` [compound 2001], the IC50 under setting [3] was 65800 nM. Regarding `Cc1nc2cnc(C3(F)CCN(C)CC3)c(C#N)c2c(=O)n1CCOc1ccc(Cl)cc1-c1ccnc2c(C(=O)O)csc12` [compound 1264], the IC50 under setting [3] is 12.4 nM.

On to `COc1ccc(-c2c(Cl)cc3nc(C)n(CCOc4ccc(Cl)cc4-c4cc(C)nc5c(C(=O)O)csc45)c(=O)c3c2C#N)cn1` [compound 1061], for which the IC50 is under 50 nM under setting [1] and 8.54 nM under setting [2]. Take `O=C(O)c1cccc(-c2cc(Cl)ccc2OCCn2ccc3nnccc3c2=O)c1` [compound 15]: the IC50 was over 1000 nM under setting [1] and 1740 nM under setting [2]. Take `Cc1ccc(-c2nc(C)c3nc(C)n(CCOc4ccc(Cl)cc4-c4cc(C)nc5c(C(=O)O)csc45)c(=O)c3c2C#N)cc1` [compound 477]: the IC50 under setting [1] was under 50 nM. Turning to `Cc1nc2cnc(N(C)C3CCN(CC(F)F)CC3)c(C#N)c2c(=O)n1CC#Cc1ccc(Cl)cc1-c1ccnc2c(C(=O)NS(=O)(=O)CC(F)(F)F)csc12` [compound 1597], under setting [3], the IC50 is 22.1 nM. In the case of `Cc1cc(-c2cc(Cl)ccc2OCCn2c(C)nc3cc(C(F)(F)F)c(N(C)C)c(C#N)c3c2=O)c2scc(C(=O)O)c2n1` [compound 996], the IC50 was under 50 nM under setting [1] and 31.6 nM under setting [2].

As for `Cc1nc2cc(C(F)(F)F)c(N3CCN(C)CC3)c(C#N)c2c(=O)n1CCOc1ccc(Cl)cc1-c1ccnc2cc(Cl)sc12` [compound 1246], the IC50 under setting [1] fell in the range of 50 to 1000 nM and the IC50 under setting [3] is 106 nM. Regarding `Cc1nc2cnc(N3CCN(C4(C#N)CC4)CC3)c(C#N)c2c(=O)n1CC#Cc1ccc(Cl)cc1-c1ccnc2c(C(=O)O)csc12` [compound 1368], the IC50 under setting [3] was 19.9 nM. In the case of `Cc1cc(-c2cc(Cl)ccc2OCCn2c(C)nc3cc(Cl)c(C(F)F)c(C#N)c3c2=O)c2scc(C(=O)O)c2n1` [compound 586], the IC50 is, setting by setting: under setting [1], under 50 nM; under setting [2], 50 nM.
